# According to patent US20170252433A1, “PSMA-RELATED THERAPIES” (Memorial Sloan Kettering Cancer Center, priority 2014, published 2017):
# What was measured:
# [1] = test system: PSMA-expressing (LNCaP-PSMA+ve) and PSMA-negative (LNCaP-PSMA-ve) cells; assay: Cell viability with ROS-generating drug Elesclomol (Alamar Blue); format: cell-based, human; settings: 2-PMPA 250 nM, 48 h; Elesclomol 250 nM; FIG. 8 C and D
# Experimental: Cell viability of (A) PSMA-expressing (LNCaP-PSMA+ve) and (B) PSMA-negative cells (LNCaP-PSMA-ve where PSMA expression was knocked down with shRNA) was determined via the fluorescence-based Alamar Blue method (λex=565 nm and λem=585 nm). Cell viability was assessed 48 h after drug administration with either vehicle (DMSO) or the ROS-generating drug Elesclomol (250 nM, Selleck Chemicals). […] The cells were treated for 48 h, and cell viability was determined with the Alamar Blue method.
# [2] = test system: PSMA-expressing prostate cancer cells (LNCaP-wt, PC3-hPSMA) and PC3-wt; assay: Cytoplasmic calcium quantification (Fluo4 assay); format: cell-based, human
# Experimental: Cells were seeded at a density of 10,000 per well on a 96-well plate and grown overnight. Loading of the calcium-sensing dye Fluo4 (Life Technologies, Calrsbad, Calif.) was performed according to the manufacturer's instructions. Where indicated the cells were treated with thapsigargin (1 μM, Tocris, Minneapolis, Minn.), L-Quisqualic acid (110 μM, Tocris), 3,5-DHPG (0.67 mM, Tocris), L-AP3 (125 μM, Tocris), U73122 (50 μM, Tocris), and 2-PMPA (100 μM, Tocris) immediately before measuring calcium levels, with a SpectraMax M5 plate reader (Molecular Devices, Sunnyvale, Calif.).
# The effect of PSMA expression on calcium homeostasis in prostate cancer cell lines was evaluated using the fluorimetric Fluo4 assay kit (Invitrogen), according to the supplier's instructions. The plate was excited at 490 nm, and fluorescence emission was monitored at 520 nm with the SpectraMax M5 plate reader (Molecular Devices). […] To examine calcium accumulation in the cytoplasm, the cells were treated with thapsigargin (1 μM, Tocris) immediately prior to taking measurements with the plate reader. […] Furthermore, we investigated whether PSMA facilitates calcium signaling via the mGluR Group I receptors through its enzymatic activity. The cells were treated with either L-Quisqualic acid (110 μM; mGluR I agonist, Tocris), L-AP3 (125 μM; mGluR I antagonist, Tocris) or a PSMA inhibitor (100 μM, Tocris), immediately prior to taking calcium measurements.
# [3] = test system: LNCaP, LNCaP-KD, PC3-PSMA and PC3-wt cells; assay: In vitro chemotherapy, cell viability (Alamar blue)
# Experimental: Cells were seeded in a 96-well format (2,500 cells per well), and grown for 48 h. They were then treated with the following drugs at a final concentration of 200 nM: Doxorubicin, Taxol, AZD6244, BEZ235, Lapatinib, and Velcade (all purchased from Selleck Chemicals, Houston, Tex.). For combination therapy, cells were treated with 2-PMPA (5 μM final concentration). After overnight incubation in the presence of the drugs, cell viability was determined with the Alamar blue method according to the supplier's guidelines (Life Technologies, Carlsbad, Calif.)
# Given that PSMA affects the phosphorylation status of multiple targets, it was investigated whether inhibition of PSMA can counteract resistance to various chemotherapeutics used in the clinic or under clinical trials. LNCaP and PCS3-PSMA cells were seeded at a density of 2,500 cells per well in a 96-well format, and after 48 hours growth the cells were treated with the drugs (Doxorubicin (Adriamycin; DNA intercalator), Taxol (Paclitaxel; microtubule stabilizer), AZD6244 (Selumetinib; MEK1 & ERK1/2 inhibitor), BEZ235 (Dactolisib; PI3K & mTOR inhibitor), Lapatinib (EGFR and ErbB2 inhibitor), or Velcade (Bortezomib; 20S proteasome inhibitor), 200 nM final concentration in 1×PBS) or with the drugs (200 nM final concentration) and 2-PMPA (5 μM final concentration). After overnight incubation, cell viability was assessed fluorimetrically with the Alamar blue method (Invitrogen), according to the supplier's protocol.
# LNCaP-wt cells = assay: Androgen receptor pathway output: secreted PSA (DELFIA PSA assay); format: cell-based, human; settings: 5 μM, 48 h
# Experimental: Gene expression array was performed after TRIzol-based RNA extraction on an U133A 2.0 gene array (Affymetrix, Santa Clara, Calif.). The output of the androgen receptor (AR) pathway was assessed by measuring the levels of prostate specific antigen (PSA). LNCaP cells that have a functional AR pathway were obtained from ATCC (Manassas, Va.) and grown to confluence. Then they were treated for 48 h with 2-PMPA (5 μM) for 48 h, followed by screening of the culture medium for secreted PSA with the DELFIA PSA assay (Perkin Elmer, Waltham, Mass.). The levels of nitric oxide attributed to nitric oxide synthase's activity and the concentration of total secreted prostaglandins were quantified with the corresponding kits purchased from Cayman Chemicals (Ann Arbor, Mich.). Alterations in energy production due to signaling changes were determined through quantification of the intracellular NAD+ and ATP lelels, using the NAD assay from Cayman Chemicals (Ann Arbor, Mich.) and the StayBrite ATP kit from Biovision (Milpitas, Calif.).
# Since PSMA regulates Akt phosphorylation, it was investigated whether inhibition of PSMA and subsequent downregulation of Akt activity affected the status of the androgen receptor (AR) pathway. […]
structure (smiles),measurement,setting,value
O=C(O)CCC(CP(=O)(O)O)C(=O)O (stereo not shown) [2-PMPA],resistance to ROS-generating drug (cell viability),[1],abrogates drug resistance and renders the cells susceptible to cell death
same,cytoplasmic calcium levels,"[2]; PSMA inhibition compared with Phospholipase C inhibitor U73122 50 μM, FIG. 1d",reduction in calcium levels
same,cytoplasmic calcium levels,"[2]; PSMA-expressing cells, PSMA inhibitor 100 μM, L-AP3 125 μM, FIG. 1c",lowered calcium levels
same,effect of 2-PMPA on toxicity of chemotherapeutics (cell viability),"[3]; PSMA-expressing cells, drugs 200 nM plus 2-PMPA 5 μM, overnight, FIG. 7a-d",enhanced the toxicity of all chemotherapeutics
same,cytotoxic effect of the inhibitor alone,[3]; for the study's time-course,no cytotoxic effect
same,PSA mRNA levels,LNCaP-wt cells,did not affect PSA's mRNA levels
same,PSA levels in culturing medium,LNCaP-wt cells; FIG. 5a,increased PSA levels
